Data reported in patent publication US12152017B2, “Ketoamide compound and preparation method, pharmaceutical composition, and use thereof” (Shanghai Institute of Materia Medica, Chinese Academy of …, priority 2018, dated 2024).
Several values for one entry are separate records, joined by “and”; a condition that tells them apart may be missing. Identical values can stand only once. Like-named read-outs stand apart in the source and are kept apart here.

Legend:
SARS-CoV pseudovirus = assay: microbe, parasite or virus in culture; assay type: cell-based; details: Severe acute respiratory syndrome coronavirus; 100 nM; read-out: viral inhibitory effect, SARS-CoV pseudovirus
[1] = Pharmacokinetic study in CD-1 mice (gavage, intravenous, intraperitoneal); assay type: in vivo; details: for bioavailability: read-out: F (bioavailability)
Procedure: Nine CD-1 mice, male, weighing 18-22 g, were randomly divided into 3 groups with 3 mice in each group. The test compounds were administered by gavage, intravenously and intraperitoneally according to the following schemes.
Before the test, they were fasted for 12 hours and were allowed to drink water freely, and were fed uniformly 2 h after administration.
There were 3 animals at each time point.
The solution for gavage administration was formulated with DMSO/0.5% HPMC (5/95, v/v) into the final concentration. Intravenous and intraperitoneal administration were formulated with DMSO/PEG300/EtOH/NaCl (5/40/5/50, v/v/v). Retention samples of the dosing solution (50 μL of the drug solution was taken and mixed well with 50 μL of DMSO before and after the administration) for testing.
The drug was administered according to the above dosage, the time of administration were recorded, and 20 μL of blood was collected from the mouse femoral plexus at the above set time point and placed in a heparinized test tube and centrifuged immediately at 11000 rpm for 5 min. 10 μL of plasma was immediately and accurately drawn into a centrifuge tube pre-filled with 100 μL of PK-IS solution (prepared with methanol:acetonitrile (1:1, v/v)), mixed well, and frozen to store at −20° C. for testing.

[2] = In vivo safety: body weight of mice during 7 days of intraperitoneal administration; design: species or system Balb/c mice; details: 100 mg/kg i.p. once a day for 7 consecutive days
Procedure: Next, we further evaluated the safety of compound A13 in mice. The mice in the drug group (100 mg/kg) and the DMSO control group were administered intraperitoneally, once a day, for 7 consecutive days, and then the growth status and weight changes of the mice in each group were observed.

in vitro = details: human
VSV-G pseudovirus = assay type: cell-based
HCoV-229E pseudovirus = assay: microbe, parasite or virus in culture; assay type: cell-based; details: Human coronavirus 229E, read-out: viral inhibitory effect, HCoV-229E pseudovirus
MERS-CoV pseudovirus = assay: microbe, parasite or virus in culture; assay type: cell-based; details: Middle East respiratory syndrome-related coronavirus, Huh-7; 100 nM; read-out: viral inhibitory effect, MERS-CoV pseudovirus
[3] = i.p. (20 mg/Kg per Table 3), Mean of 3 mice
[4] = i.p. (20 mg/Kg per Table 3), individual animal, 20 mg/kg
[5] = i.v. 10 mg/Kg, individual animal, 10 mg/kg
[6] = male, CD-1, mouse, plasma, ip, 20 mg/kg, i.p. (20 mg/Kg per Table 3), individual animal
[7] = p.o. (gavage 20 mg/Kg per Table 3), Mean of 3 mice
[8] = p.o. (gavage 20 mg/Kg per Table 3), individual animal, 20 mg/kg

O=C(NCc1ccccc1)C(=O)[C@H](C[C@@H]1CCCNC1=O)NC(=O)[C@H](CC1CCCCC1)NC(=O)c1cc2ccccc2o1 [Example A13]
inhibition at 0.1 µM (SARS-CoV pseudovirus): ~90%
AUC INF_obs [1, 3]: 7635 ng·h/mL
AUC last (exposure for intraperitoneal injection) [1, 3]: 7298 ng·h/mL
C max [1, 3]: 3270 ng/mL
MRT INF_obs [1, 3]: 5.34 h
T1/2 [1, 3]: 5.77 h
AUC INF_obs [1, 4]: 7708 ng·h/mL and 8196 ng·h/mL
AUC last [1, 4]: 7304 ng·h/mL and 8077 ng·h/mL
C max [1, 4]: 3583 ng/mL and 3372 ng/mL
MRT INF_obs [1, 4]: 6.69 h and 6.05 h and 3.28 h
T1/2 [1, 4]: 5.90 h and 4.94 h
T max [1, 4]: 0.250 h and 0.050 h
AUC INF_obs ([1]; i.v. 10 mg/Kg, Mean of 3 mice): 2976 ng·h/mL
AUC last ([1]; i.v. 10 mg/Kg, Mean of 3 mice): 2896 ng·h/mL
Cl_obs ([1]; i.v. 10 mg/Kg, Mean of 3 mice): 62.5 mL/min/kg
MRT INF_obs ([1]; i.v. 10 mg/Kg, Mean of 3 mice): 1.88 h
T1/2 ([1]; i.v. 10 mg/Kg, Mean of 3 mice): 3.34 h
VSS_obs ([1]; i.v. 10 mg/Kg, Mean of 3 mice): 6.419 L/kg
AUC INF_obs [1, 5]: 3411 ng·h/mL and 1773 ng·h/mL and 3745 ng·h/mL
AUC last [1, 5]: 3300 ng·h/mL and 1734 ng·h/mL and 3652 ng·h/mL
Cl_obs [1, 5]: 48.9 mL/min/kg and 94.0 mL/min/kg and 44.5 mL/min/kg
MRT INF_obs [1, 5]: 3.11 h and 1.13 h and 1.40 h
T1/2 [1, 5]: 6.09 h and 2.07 h and 1.87 h
VSS_obs [1, 5]: 9.132 L/kg and 6.389 L/kg and 3.736 L/kg
bioavailability ([1]; male, CD-1, mouse, plasma, intraperitoneal, i.p. 20 mg/Kg vs i.v. 10 mg/Kg): 126%
Tmax ([1]; male, CD-1, mouse, plasma, ip, 20 mg/kg, i.p. (20 mg/Kg per Table 3), Mean of 3 mice): 0.183 h
Cmax [1, 6]: 2860 ng/mL
half-life [1, 6]: 6.46 h
AUC(0-inf) ([1]; male, CD-1, mouse, plasma, ip, 20 mg/kg, i.p. (20 mg/Kg per Table 3), individual animal, read-out: AUC INF_obs): 7000 ng·h/mL
AUC(0-t) ([1]; male, CD-1, mouse, plasma, ip, 20 mg/kg, i.p. (20 mg/Kg per Table 3), individual animal, read-out: AUC last): 6510 ng·h/mL
bioavailability ([1]; male, CD-1, mouse, plasma, oral, p.o. 20 mg/Kg vs i.v. 10 mg/Kg): 7.99%
AUC INF_obs [1, 7]: 488 ng·h/mL
AUC last (oral exposure) [1, 7]: 463 ng·h/mL
C max [1, 7]: 290 ng/mL
MRT INF_obs [1, 7]: 2.11 h
T1/2 [1, 7]: 1.32 h
T max [1, 7]: 0.250 h
T max ([1]; p.o. (gavage 20 mg/Kg per Table 3), individual animal): 0.250 h
AUC INF_obs [1, 8]: 700 ng·h/mL and 499 ng·h/mL and 263 ng·h/mL
AUC last [1, 8]: 690 ng·h/mL and 458 ng·h/mL and 241 ng·h/mL
C max [1, 8]: 493 ng/mL and 259 ng/mL and 118 ng/mL
MRT INF_obs [1, 8]: 1.37 h and 3.08 h and 1.88 h
T1/2 [1, 8]: 0.619 h and 2.15 h and 1.18 h
body weight change versus control group [2]: no difference of the body weight
CC50 (in vitro): > 100000 nM
inhibitory effect on VSV-G-mediated pseudovirus infection (VSV-G pseudovirus): did not show an effective inhibitory effect
inhibition at 0.1 µM (HCoV-229E pseudovirus): ~90%
inhibition at 0.1 µM (MERS-CoV pseudovirus): ~90%
Inhibition of HCoV-OC43 infection and CPE (HCoV-OC43 live virus; 1 μM, HCT-8 cells): effectively block the virus infection
IC50 (HCoV-OC43 live virus; Betacoronavirus 1, OC43, HCT-8, read-out: IC50 against HCoV-OC43 live virus infection): 86 nM
protective effect on target cells (CPE) at different concentrations (HCoV-OC43 live virus; HCT-8 cells, HCoV-OC43): obviously dose-dependent
CC50 relative to the detection dose (Huh-7 cells): more than 1000 times
